From patent publication US20050070532A1, “Aryl compounds as modulators of PPARS and methods of treating metabolic disorders” (priority 2003, published 2005)

Experiments:
[1] = target: T1, hPPARδ (Homo sapiens, UniProt Q03181); test: cell-based human PPAR-GAL4 chimera luciferase reporter assay in CV-1 cells (PPARδ); conditions: CV-1 cells transiently transfected with PPAR LBD-GAL4 chimera and luciferase reporter, 24 hours treatment
T1 construct: expressed in transfected cells; host or cells: CV-1 cells
T1 sequence (Q03181 211-439 limits assumed): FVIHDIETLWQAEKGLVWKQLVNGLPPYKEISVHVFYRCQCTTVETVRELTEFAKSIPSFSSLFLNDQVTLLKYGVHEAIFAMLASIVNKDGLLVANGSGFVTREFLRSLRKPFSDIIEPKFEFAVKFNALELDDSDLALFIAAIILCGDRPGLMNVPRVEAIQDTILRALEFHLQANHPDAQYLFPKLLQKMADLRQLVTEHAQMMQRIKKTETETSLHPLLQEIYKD
Description: (§1) The compounds were evaluated in a cell-based assay to determine their human PPAR activity. The plasmids for human PPAR-GAL4 chimeras were prepared by fusing amplified cDNAs encoding the LBDs of PPARs to the C-terminal end of the yeast GAL4 DNA binding domain. CV-1 cells were grown and transiently tranfected with PerFectin (GTS, San Diego, Calif.) according to the manufacturer's protocol along with a luciferase reporter. Eight hours after transfection, 50 μL of cells were replated into 384 well plates (1×10^5 cells/well). Sixteen hours after replating, cells were treated with either compounds or 1% DMSO for 24 hours. Luciferase activity was then assayed with Britelite (Perkin Elmer) following the manufacturer's protocol and measured with either the Perkin Elmer Viewlux or Molecular Devices Acquest.

[2] = target: T2, hPPARα (Homo sapiens, UniProt Q07869); test: cell-based human PPAR-GAL4 chimera luciferase reporter assay in CV-1 cells (PPARα); conditions: CV-1 cells transiently transfected with PPAR LBD-GAL4 chimera and luciferase reporter, 24 hours treatment; read-out: hPPAPα (EC50)
T2 construct: expressed in transfected cells; host or cells: CV-1 cells
T2 sequence (Q07869 239-466 limits assumed): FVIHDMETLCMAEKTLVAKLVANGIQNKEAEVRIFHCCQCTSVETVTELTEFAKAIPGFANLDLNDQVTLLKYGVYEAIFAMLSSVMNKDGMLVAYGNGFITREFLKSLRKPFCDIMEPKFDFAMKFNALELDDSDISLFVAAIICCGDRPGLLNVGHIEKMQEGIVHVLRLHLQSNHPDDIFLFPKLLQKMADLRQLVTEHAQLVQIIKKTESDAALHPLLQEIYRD
Description: as §1

[3] = target: T3, hPPARγ (Homo sapiens, UniProt P37231); test: cell-based human PPAR-GAL4 chimera luciferase reporter assay in CV-1 cells (PPARγ); conditions: CV-1 cells transiently transfected with PPAR LBD-GAL4 chimera and luciferase reporter, 24 hours treatment
T3 construct: expressed in transfected cells; host or cells: CV-1 cells
T3 sequence (P37231 238-503 limits assumed): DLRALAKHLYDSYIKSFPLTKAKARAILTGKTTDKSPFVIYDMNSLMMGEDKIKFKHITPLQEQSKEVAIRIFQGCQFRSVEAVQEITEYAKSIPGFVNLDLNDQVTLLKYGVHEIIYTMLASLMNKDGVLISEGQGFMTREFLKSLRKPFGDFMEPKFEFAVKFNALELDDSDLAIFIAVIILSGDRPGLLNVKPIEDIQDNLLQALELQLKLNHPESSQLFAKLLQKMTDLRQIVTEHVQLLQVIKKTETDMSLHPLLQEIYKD
Description: as §1

## O=C(O)Cc1cccc(OCCCN(Cc2ccc(C(F)(F)F)cc2C(F)(F)F)c2nc3ccccc3o2)c1
[1]
  EC50: 1 to 100 µM
[2]
  EC50: > 100 µM
[3]
  EC50: < 1 µM

## CCCCN(CCCOc1c(C(=O)O)ccc2ccccc12)c1nc2ccccc2o1
[1]
  EC50: > 100 µM
[2]
  EC50: > 100 µM
[3]
  EC50: 1 to 100 µM

## CCCCN(CCCOc1cccc(CC(=O)O)c1)c1ncc(CC)cn1
[1]
  EC50: 1 to 100 µM
[2]
  EC50: > 100 µM
[3]
  EC50: < 1 µM

## CCc1cnc(N(CCCOc2c(C(=O)O)ccc3ccccc23)Cc2ccc(C(F)(F)F)cc2C(F)(F)F)nc1
[1]
  EC50: > 100 µM
[2]
  EC50: 1 to 100 µM
[3]
  EC50: < 1 µM

## CCCCN(CCCOc1c(C(=O)O)ccc2ccccc12)c1nc2ccccc2s1
[1]
  EC50: 1 to 100 µM
[2]
  EC50: > 100 µM
[3]
  EC50: 1 to 100 µM

## O=C(O)c1ccc2ccccc2c1OCCCN(Cc1ccc(C(F)(F)F)cc1)c1nc2ccccc2s1
[1]
  EC50: > 100 µM
[2]
  EC50: > 100 µM
[3]
  EC50: < 1 µM

## O=C(O)Cc1cccc(OCCCN(Cc2ccc(C(F)(F)F)cc2C(F)(F)F)c2ccccn2)c1
[1]
  EC50: < 1 µM
[2]
  EC50: > 100 µM
[3]
  EC50: < 1 µM

## CCc1cnc(N(CCCOc2cccc(CC(=O)O)c2)Cc2ccc(C(F)(F)F)cc2C(F)(F)F)nc1
[1]
  EC50: < 1 µM
[2]
  EC50: < 1 µM
[3]
  EC50: < 1 µM

## O=C(O)Cc1cccc(OCCCN(Cc2ccc(C(F)(F)F)cc2)c2nc3ccccc3s2)c1
[1]
  EC50: < 1 µM
[2]
  EC50: < 1 µM
[3]
  EC50: < 1 µM

## CCCCN(CCCOc1cccc(CC(=O)O)c1)c1nc2ccccc2o1
[1]
  EC50: 1 to 100 µM
[2]
  EC50: 1 to 100 µM
[3]
  EC50: > 100 µM

## CCc1cnc(N(CCCOc2ccc3cc(C(=O)O)ccc3c2)Cc2ccc(C(F)(F)F)cc2C(F)(F)F)nc1
[1]
  EC50: > 100 µM
[2]
  EC50: > 100 µM
[3]
  EC50: > 100 µM

## CCCCN(CCCOc1cccc(CC(=O)O)c1)c1ccccn1
[1]
  EC50: 1 to 100 µM
[2]
  EC50: > 100 µM
[3]
  EC50: < 1 µM

## O=C(O)c1ccc2ccccc2c1OCCCN(Cc1ccc(C(F)(F)F)cc1C(F)(F)F)c1nc2ccccc2o1
[1]
  EC50: > 100 µM
[2]
  EC50: > 100 µM
[3]
  EC50: < 1 µM

## CCCCN(CCCOc1cccc(CC(=O)O)c1)c1nc2ccccc2s1
[1]
  EC50: 1 to 100 µM
[2]
  EC50: 1 to 100 µM
[3]
  EC50: > 100 µM

## O=C(O)Cc1cccc(OCCCN(Cc2ccc(C(F)(F)F)cc2C(F)(F)F)c2nc3ccccc3s2)c1
[1]
  EC50: 1 to 100 µM
[2]
  EC50: > 100 µM
[3]
  EC50: < 1 µM

## CCCCN(CCCOc1c(C(=O)O)ccc2ccccc12)c1ncc(CC)cn1
[1]
  EC50: > 100 µM
[2]
  EC50: > 100 µM
[3]
  EC50: < 1 µM

## CCCCN(CCCOc1c(C(=O)O)ccc2ccccc12)c1ccccn1
[1]
  EC50: > 100 µM
[2]
  EC50: > 100 µM
[3]
  EC50: < 1 µM

## CCc1cnc(N(CCCOc2cc3ccccc3cc2C(=O)O)Cc2ccc(C(F)(F)F)cc2C(F)(F)F)nc1
[1]
  EC50: > 100 µM
[2]
  EC50: 1 to 100 µM
[3]
  EC50: < 1 µM
